Data from patent publication US20260325473A1, “N-Beta-Hydroxybutyryl-Amino Acids and Related Compositions and Methods” (The Board of Trustees of the Leland Stanford Junior …, priority 2023, published 2026).
Values belong to the compound of their own block, whether it stands above or below them.

What was measured:
[1] = tested on: diet-induced obese (DIO) mice; assay: Acute administration in DIO mice in metabolic chambers; assay type: in vivo, mouse; settings: 50 mg/kg IP, single
Experimental: (§1) General animal information. Animal experiments were performed according to procedure approved by the Stanford University Administrative Panel on Laboratory Animal Care (APLAC). Mice were maintained in 12-hr light-dark cycles at 22° C. and ~50% relative humidity and fed a standard irradiated rodent chow diet. Where indicated, high-fat diet (D12492, Research Diets 60% kcal from fat) and ketogenic diet (D06040601, Research Diets, 80% kcal fat/15% kcal protein/5% kcal carbohydrate) was used. Male C57BL/6J (stock no. 000664) and male C57BL/6J DIO mice (stock no. 380050) were purchased from Jackson Laboratory. Male C57BL/6NCrl (stock no. 027) mice were purchased from Charles River Laboratory. Whole body CNDP2-KO mice (catalog number, C57BL/6NCrl-Cndp2em1 (IMPC) Mbp/Mmucd, RRID: MMRRC_043492-UCD) were obtained from the Mutant Mouse Regional Resource Center, a NCRR-NIH funded strain repository. For in vivo injection of mice with metabolites, compounds were dissolved in 18:1:1 (by volume) of saline/Kolliphor EL (Sigma Aldrich)/DMSO. Compounds were administered to mice daily via intraperitoneal injections at 5 μl/g body weight at the indicated doses. For all injection experiments, mice were mock injected with the vehicle for 3-5 days until body weights have stabilized. Sample sizes were determined on the basis of previous experiments using similar methodologies. For metabolite administration experiments, mice were randomly assigned to treatment groups. Experimenters were not blinded to groups.

DIO mice [2] = assay: Chronic administration in DIO mice: body weight and food intake; assay type: in vivo, mouse; settings: for body weight, head-to-head keto amino acids: 5 days, vs vehicle
Experimental: as §1

DIO mice [3] = assay: Plasma AST, ALT, TG, HDL, LDL in DIO mice after chronic treatment; assay type: in vivo, mouse; settings: 50 mg/kg/day IP; 14 days
Experimental: as §1

[4] = Keto-Med study, plasma metabolites; assay type: in vivo; settings: human; 4 weeks WFKD vs baseline
Experimental: Targeted metabolomics. Targeted measurements were performed using an Agilent 6470 triple quadrupole LC-MS instrument. MS analysis was performed using AJS in negative mode. The AJS source parameters were set as follows: the dry gas temperature was set at 250° C. with a gas flow of 12 l/min and the nebulizer pressure at 25 psi; the sheath gas temperature was set to 300° C. with the sheath gas flow set at 12 l/min; and the capillary voltage was set to 3,500 V. Separation of polar metabolites was performed as described above in the ‘Untargeted measurements of metabolites by LC-MS’ section. Multiple reaction monitoring was performed for the indicated metabolites with the listed dwell times, fragmentor voltage, collision energies, cell accelerator voltages and polarities. Quantification of the endogenous metabolite concentrations were performed by generating a standard curve with known concentrations of each metabolite. Metabolite standards were analyzed alongside the plasma samples using the same targeted triple quadrupole LC/MS method. A calibration standard curve generated from the metabolite standard concentrations and total peak areas were used to calculate the concentrations of each endogenous metabolite. The dilution of the plasma during the sample preparation was also taken into account for the quantification.
Keto-Med study. Keto-Med was a single-site, randomized, crossover, interventional trial comparing 2 metabolically distinct diets (well-formulated ketogenic diet, WFKD; and Mediterranean-plus diet, Med-Plus) among individuals with prediabetes and T2DM. Forty participants aged ≥18 years with prediabetes or T2DM followed the WFKD and the Med-Plus for 12 weeks each, in random order. Participants were randomly assigned into 1 of 2 different diet sequences: WFKD for 12 weeks (phase 1) and then the Med-Plus for 12 weeks (phase 2), or the opposite order. Ad libitum intake was advised, and participants were guided to follow 2 sets of dietary guidelines that shared 3 important similarities (incorporating nonstarchy vegetables and avoiding added sugars and refined grains) and 3 important differences (incorporating compared with avoiding legumes, fruits, and whole, intact grains). During the WFKD phase, participants were counseled to sustain nutritional ketosis by limiting carbohydrates to 20-50 g/day and keeping proteins to ~1.5 g/kg ideal body weight/day, with the remaining kcals coming from fats. Participants were also instructed to consume >3 servings/day of nonstarchy vegetables and maintain adequate mineral and fluid intake for the ketogenic state (sodium, 3-5 g/day; potassium, 3-4 g/day). […]

Structure (SMILES): CC(O)CC(=O)N[C@@H](Cc1ccccc1)C(=O)O (stereo partly shown) [BHB-Phe, N-betahydroxybutyryl-phenylalanine]
food intake (metabolic chambers) [1]: reduced food intake | ambulatory movement ([1]; over 10 h): without affecting movement | energy expenditure: carbon dioxide production (VCO2) ([1]; over 10 h): without affecting movement, oxygen consumption or CO^2 production | energy expenditure: oxygen consumption (VO2) ([1]; over 10 h): without affecting movement, oxygen consumption | reduction of food intake ([1]; over 10 h): ~ 30% | respiratory exchange ratio (RER) ([1]; over 10 h): reduction in respiratory exchange ratio (RER) | ambulatory movement ([1]; over 10 h, listed as Keto-Phe): no effects | energy expenditure: carbon dioxide production (VCO2) ([1]; over 10 h, listed as Keto-Phe): no effects | energy expenditure: oxygen consumption (VO2) ([1]; over 10 h, listed as Keto-Phe): no effects | respiratory exchange ratio (RER) ([1]; over 10 h, listed as Keto-Phe): no effects | food intake and body weight, related metabolites and dipeptides (DIO mice [2]; 50 mg/kg IP, 9 days): suppressed food intake and body weight | body weight and food intake, conjugate vs components (DIO mice [2]; 50 mg/kg/day IP, BHB or phenylalanine at the same doses, 9 days): efficiently suppressed body weight and food intake | body weight gain, 2-week study (DIO mice [2]; 50 mg/kg/day IP, 2 weeks): concomitant reduction in body weight gain | daily food intake, 2-week study (DIO mice [2]; 50 mg/kg/day IP, 2 weeks): durable suppression of daily food intake | body weight gain (DIO mice [2]; 50 mg/kg/day IP, 10-day period): concomitant reduction in body weight gain | suppression of daily food intake, average (DIO mice [2]; 50 mg/kg/day IP, 10-day period): −30% | body weight, head-to-head keto amino acids (DIO mice [2]; 50 mg/kg/day IP): effective in suppressing body weight | weight loss compared with pair-fed controls (DIO mice [2]; 50 mg/kg/day IP, 6 days): lost the same amount of weight as pair-fed controls | plasma ALT (DIO mice [3]): reductions | plasma AST (DIO mice [3]): reductions | plasma HDL-cholesterol (DIO mice [3]): no changes | plasma LDL-cholesterol (DIO mice [3]): no changes | plasma total triglycerides (TG) (DIO mice [3]): reductions

induction of plasma keto amino acids on WFKD [4]: Robust induction
Structure (SMILES): CC(O)CC(=O)N[C@H](C(=O)O)C(C)C (stereo partly shown) [BHB-Val, N-betahydroxybutyryl-valine]
body weight, head-to-head keto amino acids (DIO mice [2]; 50 mg/kg/day IP): effective in suppressing body weight
